Reference: ChEMBL document CHEMBL5678818, “Discovery of potent SOS1 inhibitors that block RAS activation via disruption of the RAS-SOS1 interaction” (Proc Natl Acad Sci U S A, 2019)
The source made the active and inactive calls. The calls are words filed in the database; no cut-off is given here.

How the values were obtained:
[1] = system: GTPase KRas (Homo sapiens), P01116 [G12C]; test: Stabilization of N-terminal GST-tagged recombinant human KRAS G12C mutant (1 to 169 residues) expressed in Escherichia coli assessed as change in melting temperature at 100 uM with heating from 25 to 85 degreeC by thermal shift assay
[2] = biological target: Macrophage colony-stimulating factor 1 receptor (Homo sapiens) (UniProt P07333); test: Inhibition of autoinhibited CSF1R (unknown origin) assessed as residual activity at 100 nM by KINOMEscan analysis relative to control
[3] = biological target: T1, Activin receptor type-1B (Homo sapiens) (UniProt P36896); test: Inhibition of ACVR1B (unknown origin) assessed as residual activity at 100 nM by KINOMEscan analysis relative to control
T1 sequence (whole entry): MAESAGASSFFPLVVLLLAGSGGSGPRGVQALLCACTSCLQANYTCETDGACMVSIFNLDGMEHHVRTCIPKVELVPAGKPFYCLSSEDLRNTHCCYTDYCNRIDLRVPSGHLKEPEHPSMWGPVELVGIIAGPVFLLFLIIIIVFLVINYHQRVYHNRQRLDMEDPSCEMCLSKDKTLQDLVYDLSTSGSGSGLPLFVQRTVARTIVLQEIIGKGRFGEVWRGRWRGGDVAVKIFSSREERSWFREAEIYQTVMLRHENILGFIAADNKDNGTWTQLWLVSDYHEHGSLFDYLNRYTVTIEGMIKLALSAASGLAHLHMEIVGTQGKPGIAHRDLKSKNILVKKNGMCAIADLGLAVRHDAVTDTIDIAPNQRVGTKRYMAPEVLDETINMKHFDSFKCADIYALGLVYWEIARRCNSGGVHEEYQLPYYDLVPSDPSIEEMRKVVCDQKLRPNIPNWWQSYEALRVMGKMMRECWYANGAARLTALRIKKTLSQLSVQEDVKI

[4] = system: ALK tyrosine kinase receptor (Homo sapiens), Q9UM73 [C1156Y]; test: Inhibition of ALK C1156Y mutant (unknown origin) assessed as residual activity at 100 nM by KINOMEscan analysis relative to control
[5] = biological target: Tyrosine-protein kinase receptor Tie-1 (Homo sapiens) (UniProt P35590); test: Inhibition of TIE1 (unknown origin) assessed as residual activity at 100 nM by KINOMEscan analysis relative to control
[6] = biological target: Serine/threonine-protein kinase NIM1 (Homo sapiens) (UniProt Q8IY84); test: Inhibition of NIM1 (unknown origin) assessed as residual activity at 100 nM by KINOMEscan analysis relative to control
[7] = biological target: Serine/threonine-protein kinase PAK 4 (Homo sapiens) (UniProt O96013); test: Inhibition of PAK4 (unknown origin) assessed as residual activity at 100 nM by KINOMEscan analysis relative to control
[8] = biological target: T2, Phosphorylase b kinase gamma catalytic chain, liver/testis isoform (Homo sapiens) (UniProt P15735); test: Inhibition of PHKG2 (unknown origin) assessed as residual activity at 100 nM by KINOMEscan analysis relative to control
T2 sequence (whole entry): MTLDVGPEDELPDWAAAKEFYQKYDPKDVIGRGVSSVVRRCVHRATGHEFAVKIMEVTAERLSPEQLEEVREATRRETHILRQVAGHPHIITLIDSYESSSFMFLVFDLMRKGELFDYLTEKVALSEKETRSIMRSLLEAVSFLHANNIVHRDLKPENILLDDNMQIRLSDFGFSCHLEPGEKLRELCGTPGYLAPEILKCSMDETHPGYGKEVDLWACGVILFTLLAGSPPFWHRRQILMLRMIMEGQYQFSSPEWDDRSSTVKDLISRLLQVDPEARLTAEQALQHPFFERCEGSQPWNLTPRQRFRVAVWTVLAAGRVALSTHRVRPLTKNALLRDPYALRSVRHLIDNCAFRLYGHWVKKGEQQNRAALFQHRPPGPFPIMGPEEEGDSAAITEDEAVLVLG

[9] = biological target: Calcium/calmodulin-dependent protein kinase kinase 1 (Homo sapiens) (UniProt Q8N5S9); test: Inhibition of CAMKK1 (unknown origin) assessed as residual activity at 100 nM by KINOMEscan analysis relative to control
[10] = biological target: Tyrosine-protein kinase receptor UFO (Homo sapiens) (UniProt P30530); test: Inhibition of AXL (unknown origin) assessed as residual activity at 100 nM by KINOMEscan analysis relative to control
[11] = species on record: Homo sapiens; test: Inhibition of N-terminal His10-tagged 15N-labeled recombinant human KRAS G12C/C118S mutant (1 to 169 residues) expressed in Escherichia coli/N-terminal His10-tagged wild-type recombinant human SOS1 catalytic domain (564 to 1049 residues) expressed in Escherichia coli protein-protein interaction at 1 mM incubated for 30 mins by 2D-NMR analysis
[12] = biological target: cAMP-dependent protein kinase catalytic subunit beta (Homo sapiens) (UniProt P22694); test: Inhibition of PKAC-beta (unknown origin) assessed as residual activity at 100 nM by KINOMEscan analysis relative to control

Which ΔTm [1] does the source give for `CNCc1ccccc1-c1csc([C@@H](C)Nc2nc(C)nc3cc(OC)c(OC)cc23)c1` [BAY-293] here?
The ΔTm was 0.21 °C.

With `COc1cc2ncnc(N[C@H](C)c3cccc4ccccc34)c2cc1OC` as the compound, how does the Activity [2] read?
The Activity was 96%.

And the Activity [3]?
Its Activity is 89%.

What about the Activity [4] of the same compound?
The Activity was 99%.

And the Activity [5]?
Its Activity is 85%.

And the Activity [6]?
The Activity was 78%.

And the Activity [7]?
Its Activity is 87%.

And the Activity [8]?
Its Activity is 100%.

And the Activity [9]?
Its Activity is 76%.

What about the Activity [10] of the same compound?
The Activity was 86%.

What about the Activity [11] of the same compound?
The Activity was “Active”.

What about the Activity [12] of the same compound?
Its Activity is 88%.
